In brackets after ≈: the same amount, converted by molar mass.
Assays:
Experiment in all cases: In vitro antibacterial evaluation: minimum inhibitory concentration (MIC), broth dilution method
Assay type in all cases: cell-based
Conditions in all cases: 18 hours at 35° C.
Enterococcus sp. = system: Enterococcus sp.
In short: (§1)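 Following NCCLS approved standard M7-A2, compounds are serially diluted from 64 to 0.06 μg/mL in Muller-Hinton II […] and inoculated at 5×10^5 CFU/mL; the MIC is the minimum concentration at which growth is inhibited.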

Escherichia coli = system: Escherichia coli
In short: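 Susceptibility determined by NCCLS-recommended broth dilution (M7-A2), Muller-Hinton II […]. Concentration span 64-0.06 μg/mL, inoculum 5×10^5 CFU/mL. Isolates include strains resistant to methicillin, penicillin and/or vancomycin.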

Staphylococcus sp. = system: Staphylococcus sp.
In short: as §1

Streptococcus sp. = system: Streptococcus sp.
In short: as §1

[1] = broth dilution, inoculum 5×10^5 CFU/mL

- MIC Enterococcus avium (GC 4558) (Enterococcus sp.; Enterococcus avium (GC 4558)): 16 µg/mL (≈ 11.3 µM)
- MIC Enterococcus faecalis (ATCC 29212) (Enterococcus sp.; Enterococcus faecalis (ATCC 29212)): 16 µg/mL (≈ 11.3 µM)
- MIC Enterococcus faecalis (GC 2242) (Enterococcus sp.; Enterococcus faecalis (GC 2242)): 16 µg/mL (≈ 11.3 µM)
- MIC Enterococcus faecalis (GC 2691) (Enterococcus sp.; Enterococcus faecalis (GC 2691)): 16 µg/mL (≈ 11.3 µM)
- MIC Enterococcus faecalis (GC 3059) (Enterococcus sp.; Enterococcus faecalis (GC 3059)): 16 µg/mL (≈ 11.3 µM)
- MIC Enterococcus faecalis (GC 4552) (Enterococcus sp.; Enterococcus faecalis (GC 4552)): 16 µg/mL (≈ 11.3 µM)
- MIC Enterococcus faecalis (GC 4553) (Enterococcus sp.; Enterococcus faecalis (GC 4553)): 16 µg/mL (≈ 11.3 µM)
- MIC Enterococcus faecalis (GC 4554) (Enterococcus sp.; Enterococcus faecalis (GC 4554)): 16 µg/mL (≈ 11.3 µM)
- MIC Enterococcus faecalis (GC 6189) (Enterococcus sp.; Enterococcus faecalis (GC 6189)): 16 µg/mL (≈ 11.3 µM)
- MIC Enterococcus faecium (GC 2243) (Enterococcus sp.; Enterococcus faecium (GC 2243)): 16 µg/mL (≈ 11.3 µM)
- MIC Enterococcus faecium (GC 4556) (Enterococcus sp.; Enterococcus faecium (GC 4556)): 16 µg/mL (≈ 11.3 µM)
- MIC Enterococcus faecium (GC 4557) (Enterococcus sp.; Enterococcus faecium (GC 4557)): 8 µg/mL (≈ 5.67 µM)
- MIC Enterococcus faecalis (GC 2242) (Enterococcus sp.; [1]): 16 µg/mL (≈ 11.3 µM)
- MIC Enterococcus faecalis (GC 2691) (Enterococcus sp.; [1]): 16 µg/mL (≈ 11.3 µM)
- MIC Enterococcus faecalis (GC 3059) (Enterococcus sp.; [1]): 16 µg/mL (≈ 11.3 µM)
- MIC Escherichia coli (ATCC 25922) (Escherichia coli; Escherichia coli (ATCC 25922)): >64 µg/mL
- MIC Escherichia coli (GC 4559) (Escherichia coli; Escherichia coli (GC 4559)): >64 µg/mL
- MIC Escherichia coli (GC 4560) (Escherichia coli; Escherichia coli (GC 4560)): 2 µg/mL (≈ 1.42 µM)
- MIC Coagulase Negative Staphylococcus (GC 4547) (Staphylococcus sp.; Coagulase Negative Staphylococcus (GC 4547)): 8 µg/mL (≈ 5.67 µM)
- MIC Coagulase Negative Staphylococcus (GC 4548) (Staphylococcus sp.; Coagulase Negative Staphylococcus (GC 4548)): 4 µg/mL (≈ 2.83 µM)
- MIC Coagulase Negative Staphylococcus (GC 4549) (Staphylococcus sp.; Coagulase Negative Staphylococcus (GC 4549)): 4 µg/mL (≈ 2.83 µM)
- MIC Coagulase Negative Staphylococcus (GC 4551) (Staphylococcus sp.; Coagulase Negative Staphylococcus (GC 4551)): 16 µg/mL (≈ 11.3 µM)
- MIC Coagulase Negative Staphylococcus (GC 6257) (Staphylococcus sp.; Coagulase Negative Staphylococcus (GC 6257)): 2 µg/mL (≈ 1.42 µM)
- MIC Staphylococcus aureus (ATCC 29213) (Staphylococcus sp.; Staphylococcus aureus (ATCC 29213)): 8 µg/mL (≈ 5.67 µM)
- MIC Staphylococcus aureus (GC 1131) (Staphylococcus sp.; Staphylococcus aureus (GC 1131)): 8 µg/mL (≈ 5.67 µM)
- MIC Staphylococcus aureus (GC 3051) (Staphylococcus sp.; Staphylococcus aureus (GC 3051)): 8 µg/mL (≈ 5.67 µM)
- MIC Staphylococcus aureus (GC 3053) (Staphylococcus sp.; Staphylococcus aureus (GC 3053)): 8 µg/mL (≈ 5.67 µM)
- MIC Staphylococcus aureus (GC 4541) (Staphylococcus sp.; Staphylococcus aureus (GC 4541)): 4 µg/mL (≈ 2.83 µM)
- MIC Staphylococcus aureus (GC 4542) (Staphylococcus sp.; Staphylococcus aureus (GC 4542)): 4 µg/mL (≈ 2.83 µM)
- MIC Staphylococcus aureus (GC 4544) (Staphylococcus sp.; Staphylococcus aureus (GC 4544)): 8 µg/mL (≈ 5.67 µM)
- MIC Staphylococcus aureus (GC 4545) (Staphylococcus sp.; Staphylococcus aureus (GC 4545)): 4 µg/mL (≈ 2.83 µM)
- MIC Staphylococcus aureus-SMITH (GC 4543) (Staphylococcus sp.; Staphylococcus aureus-SMITH (GC 4543)): 8 µg/mL (≈ 5.67 µM)
- MIC Streptococcus agalactiae (GC 4564) (Streptococcus sp.; Streptococcus agalactiae (GC 4564)): 2 µg/mL (≈ 1.42 µM)
- MIC Streptococcus pneumoniae (ATCC 6301) (Streptococcus sp.; Streptococcus pneumoniae (ATCC 6301)): 1 µg/mL (≈ 0.708 µM)
- MIC Streptococcus pneumoniae (GC 1894) (Streptococcus sp.; Streptococcus pneumoniae (GC 1894)): 0.5 µg/mL (≈ 0.354 µM)
- MIC Streptococcus pneumoniae (GC 4565) (Streptococcus sp.; Streptococcus pneumoniae (GC 4565)): 0.5 µg/mL (≈ 0.354 µM)
- MIC Streptococcus pyogenes (GC 4563) (Streptococcus sp.; Streptococcus pyogenes (GC 4563)): 2 µg/mL (≈ 1.42 µM)
- MIC Streptococcus agalactiae (GC 4564) (Streptococcus sp.; [1]): 2 µg/mL (≈ 1.42 µM)
- MIC Streptococcus pneumoniae (ATCC 6301) (Streptococcus sp.; [1]): 1 µg/mL (≈ 0.708 µM)
- MIC Streptococcus pneumoniae (GC 1894) (Streptococcus sp.; [1]): 0.5 µg/mL (≈ 0.354 µM)
- MIC Streptococcus pneumoniae (GC 4565) (Streptococcus sp.; [1]): 0.5 µg/mL (≈ 0.354 µM)
- MIC Streptococcus pyogenes (GC 4563) (Streptococcus sp.; [1]): 2 µg/mL (≈ 1.42 µM)
Structure (SMILES): CC(c1ccccc1)C1NC(=O)CNC(=O)C(CO)NC(=O)C(C(O)C2CNC(=N)N2C2OC(CO)C(O)C(O)C2O)NC(=O)C(C(O)C2CNC(=N)N2)NC(=O)C(Cc2ccc(OC3OC(CO)C(OC4OC(COCC=Cc5ccccc5)C(O)C(O)C4O)C(O)C3O)cc2)NC1=O (stereo not drawn) [Example 242, Cyclo[glycyl-β-methylphenylalanyl-O-[4-O-[6-O-(3-phenylprop-2-en-1-yl)hexopyranosyl]-hexopyranosyl]tyrosyl-3-(2-iminoimidazolidin-4-yl)seryl-3-(3-hexopyranosyl-2-iminoimidazolidin-4-yl)serylseryl]]
- MIC Staphylococcus haemolyticus (GC 4546) (Staphylococcus sp.; Staphylococcus haemolyticus (GC 4546)): 4 µg/mL (≈ 2.83 µM)

From patent US8247211B2, “Glycopeptide antibiotics” (American Cyanamid Company, priority 2001, dated 2012)
